Results from patent US20250275938A1, “COMPOSITIONS AND METHODS FOR TREATMENT OF CANCER” (SCIROSBIO (FZC), priority 2022, published 2025).

Columns and labels:
[1] = LC/MS of drugs and active metabolites in plasma and brain (blood brain barrier); type: in vivo, rat; settings: for Detected mass in LC-MS Brain / Detected mass in LC-MS Plasma: NA = not detected
Protocol: T, M & E (Sigma Aldrich, St. Louis, USA) were dissolved in sterile water and administered intra peritoneally for 7 days (from day 21 to day 27; where the day of tumor induction is considered day 0) to a rat with the dose specified in Table-4 (TME: 50+80+150 mg/kg body weight). After 7 days of treatment (on day 28), blood (plasma) was collected and the rat was euthanized, immediately the brain tissue was collected and stored at −80° C. The brain tissue was then processed accordingly to measure active metabolites through LC/MS.
To 100 μl of plasma or brain (0.5 g crushed in 0.5 mL of sterile water), 20 μl of the working internal standard solution was added. The samples were deproteinised with acetonitrile and the supernatant (100 μl) was injected into the chromatographic system. For the brain, as described above, ciprofloxacin solution (20 μl) was added to 100 μl of crushed brain. Then, repeating the plasma sample process, 20 μl of the solution was injected into the chromatographic system.

[2] = tested on: human hepatocellular carcinoma (HepG2) cells; assay: MTT cell viability assay, HepG2; type: cell-based; settings: 24 hours
Protocol: Cell lines and culture conditions. A human hepatocellular carcinoma (HepG2) and ovarian cancer (SKOV3) cells were obtained from National Centre for Cell Science (NCCS), Pune, India. The cells HepG2 and SKOV3 were sub-cultured in Eagle's Minimum Essential Medium (EMEM) and McCoy's 5a supplemented with 10% FBS at 5% CO2 and 37° C. […] The cells were allowed to attach 70% to the surface prior to treatment. A stock solution of all the drugs (10 mg/ml) was made in distilled H2O and diluted to the required concentrations. Suspensions were aspirated 10 times before treatment. Cells treated with vehicle control were used as a control.

[3] = tested on: human pancreatic cancer (PANC1) cells; assay: MTT cell viability assay, PANC1; type: cell-based; settings: 24 hours
Protocol: Cell lines and culture conditions: A human pancreatic cancer cell line PANC1 and human colon cancer cell line HCT116 were obtained from National Centre for Cell Science (NCCS), Pune, India. The PANC1 cells were sub-cultured in Dulbecco's Modified Eagle's Medium (DMEM) supplemented with 10% FBS at 5% C02 and 37° C. The HCT116 cells were sub-cultured in McCoy's 5A media supplemented with 10% FBS at 5% CO2 and 37° C. […] The cells were allowed to attach 70% to the surface prior to treatment. […] Suspensions were aspirated 10 times before treatment. Cells treated with vehicle control were used as a control. Cell viability assay: PANC1 and HCT116 cells ([…] cells/ml) were seeded in 96-well plates and exposed to different individual-drug treated groups with varying concentrations (0, 20, 40, 60, 80, 100, 120, 140, 160, 180 and 200 μM) for a period of 24 hours. The individual-treated groups include Group I: 5 Fluorouracil (5FU)-treated PANC1 and HCT116 cells; Group II: MET-treated PANC1 and HCT116 cells; Group III: EGCG-treated PANC1 and HCT116 cells and Group IV: 5FU+[…] PANC1 and HCT116 cells.

[4] = tested on: Ki67; assay: Immunohistochemistry of tumor sections, Ki67; type: in vivo, rat; settings: i.p. 7 days; tumor-control 36.73%
[5] = tested on: VEGF; assay: Immunohistochemistry of tumor sections, VEGF; type: in vivo, rat; settings: i.p. 7 days; tumor-control 73.58%
Protocol: Immunohistochemistry. For immunohistochemistry (IHC) analysis, 4 μm thick tissue sections were deparaffinized in xylene and hydrated by immersing in a series of graded ethanol concentration (100%, 95%, 75% and 50%). Endogenous peroxidase activity was blocked by incubating sections in 3% H2O2 solution prepared in methanol at room temperature for 10 minutes and were washed with PBS twice for 5 minutes each. Antigen retrieval was performed by immersing the slides in 300 ml of retrieval buffer (10 mM citrate buffer, pH 6.0) for one hour at 100° C. and were rinsed twice in PBS. Sections were then incubated with approximately 100 μl diluted primary antibodies of Ki67 (1:100 dilution, Elabscience, Wuhan, China) and Vascular Endothelial Growth Factor (VEGF) (1:100 dilution, Elabscience, Wuhan, China) for 30 minutes at room temperature. The slides were then washed twice with PBS and were then incubated with approximately 100 μl of diluted secondary antibody (Cat No. E-IR-R213, Elabscience, Wuhan, China) at room temperature for 30 minutes. Slides were then washed in PBS for 5 minutes, followed by incubation with approximately 100 μl diluted Horse Radish Peroxidase (HRP) conjugate for 30 minutes. […] The staining intensities were quantified using IHC Profiler, a plugin in ImageJ software, to determine the H-score (Histo score).

[6] = tested on: C6 rat glioma cell line; assay: MTT cell viability assay, C6; type: cell-based
Protocol: (§1) Cell lines and culture conditions. A human glioma cell line, U87MG, a rat glioma cell line, C6, and normal HEK293T (Human Embryonic Kidney) cells were obtained from National Centre for Cell Science (NCCS), Pune, India. The cells were sub-cultured in Dulbecco's Modified Eagle's Medium (DMEM) supplemented with 10% FBS at 5% CO2 and 37° C. At 85% confluence, the cells were harvested using 0.25% trypsin and seeded in 25 cm^2 flasks, 96 well, and 6-well plates, according to the experiment being performed. The cells were allowed to attach 70% to the surface prior to treatment. A stock solution of all the drugs (10 mg/ml) was made in a vehicle and diluted to the required concentrations. Suspensions were aspirated 10 times before treatment. Cells treated with vehicle control were used as a control.
(§2) Cell viability assay. U87MG and C6 cells (5×10^3 cells/ml) were seeded in 96-well plates and exposed to different individual-drug treated groups with varying concentrations (0, 10, 40, 80, 120, and 160 μM) for a period of 24 hours, whereas HEK293T cells (5×10^3 cells/ml) were seeded at the inhibitory concentration (IC) at 50% of drugs, either alone or in combination. The individual-treated groups include Group I: untreated control glioma cells; Group II: TMZ-treated glioma cells; Group III: MET-treated glioma cells; and Group IV: EGCG-treated glioma cells.
(§3) After a 24 hour treatment period, the cells were allowed to react with MTT for 4 hours in dark at 37° C. At the end of the incubation period, the dark purple formazan crystals formed were solubilized with DMSO and the absorbance was measured spectrophotometrically at 595 nm (Molecular Devices Spectra-Max M5, USA). The experiments were repeated at least three times. To determine the cell viability, the percentage of viability was calculated as follows:
(§4) % viability=[(Optical density {OD} of treated cells−OD of Blank)/(OD of control−OD of blank)]×100.
(§5) Calculation of IC50 value. The IC50 of a drug was determined using y=m(x)+c equation (where: ‘y’ & ‘x’ are the respective coordinates of y & x-axis, ‘m’ is the slope and ‘c’ is the constant) derived from the trendlines of each scattered plots MMT assay. […] The IC50 and IC25 were also calculated for the dual combinations. The IC50 for the triple combination was calculated by keeping the IC25 of the dual-combination constant, and the third drug was used in varying concentrations (0, 10, 40, 80, 120, and 160 μM) (Table 1).
(§6) Combination index of drugs. According to the Chou-Talalay method, The statistical Combination Index (CI) of the drugs was performed according to the Chou-Talay method (Ma et al, Stem Cell Reports, 2017 9(6):1948-1960) to determine whether various drug combinations were synergistic, additive, or antagonistic, as shown in Table 1. This was performed for Groups V-IX using the following formula:
(§7) Combination index (CI) of Drugs 1 & 2=(IC50 of drug-1 in combination/IC50 of drug-1 individually)+(IC50 of drug-2 in combination/IC50 of drug-2 individually).

[7] = tested on: HEK293T (Human Embryonic Kidney) cells; assay: Trypan blue exclusion cytotoxicity on normal cell line; type: cell-based; settings: treated at IC50 values determined in U87MG and C6, 24 hours
Protocol: Cytotoxicity on a normal cell line.
Furthermore, to check for the cytotoxicity of the drugs, a trypan blue dye exclusion assay was performed on a normal cell line, HEK293T, using the IC50 values of each drug, individually and in combination, as determined in U87MG and C6 cells and shown in Table 2.

[8] = tested on: U87MG human glioma cell line; assay: MTT cell viability assay, U87MG; type: cell-based
Protocol: as §1, §2, §3, §4, §5, §6, §7

[9] = tested on: human breast cancer (MDA-MB-453) cells; assay: MTT cell viability assay, MDA-MB-453; type: cell-based; settings: 24 hours
Protocol: Cell lines and culture conditions: A human breast cancer cell line MDA-MB-453 and human bone cancer cell line SaoS2 were obtained from National Centre for Cell Science (NCCS), Pune, India. The MDA-MB-453 cells were sub-cultured in Dulbecco's Modified Eagle's Medium (DMEM) supplemented with 10% FBS at 5% CO2 and 37° C. The SaoS2 cells were sub-cultured in McCoy's 5A media supplemented with 10% FBS at 5% CO2 and 37° C. […] The cells were allowed to attach 70% to the surface prior to treatment. […] Suspensions were aspirated 10 times before treatment. Cells treated with vehicle control were used as a control. Cell viability assay: MDA-MB-453 and SaoS2 cells (5×10^3 cells/ml) were seeded in 96-well plates and exposed to different individual-drug treated groups with varying concentrations (0, 20, 40, 60, 80, 100, 120, 140, 160, 180 and 200 μM) for a period of 24 hours.

[10] = individually treated T, M and E, i.p. 7 days
[11] = triple combination TME 50+80+150 mg/kg i.p. 7 days
[12] = as used in the triple combination for CI

SMILES: NC(=O)c1[nH]cnc1N [AIC, 5-amino-imidazole-4-carboxamide]
- Detected mass in LC-MS Brain [1, 10]: 123.09
- Detected mass in LC-MS Plasma [1, 10]: 127.02
- Detected mass in LC-MS Brain [1, 11]: 123.05
- Detected mass in LC-MS Plasma [1, 11]: 127.02

SMILES: CNC(=O)c1cc(Oc2ccc(NC(=O)Nc3ccc(Cl)c(C(F)(F)F)c3)cc2)ccn1 [SOR, Sorafenib]
- cell viability (MTT), in words [2]: reduction in cell viability in a dose-dependent fashion

SMILES: O=c1[nH]cc(F)c(=O)[nH]1 [5FU, 5-Fluorouracil]
- cell viability (MTT), in words [3]: reduction in cell viability in a dose-dependent fashion

SMILES: Cn1nnc2c(C(N)=O)ncn2c1=O [TMZ, 3-methyl-3-oxoimidazo[5,1-d] [1,2,3,5] tetrazine-8-carboxamide]
- transport across the blood brain barrier, in words ([1]; administered individually and in combination): crossed BBB in the form of their active metabolites
- Detected mass in LC-MS Plasma [1, 11]: 198.93
- Ki67 nuclear positivity rate [4]: 13.14%
- cytoplasmic positivity for VEGF (H-score) [5]: 25.83%
- IC50 ([6]; Rattus norvegicus, C6, individual drug, 24 hours, mean ± SD, no unit in table, test concentrations given in μM, read-out: Inhibitory Concentration at 50% (IC50) C6 Cells): 72 ± 1.32 µM
- IC25 C6 [6, 12]: 31.76 µM
- toxicity in normal HEK293T cells [7]: higher toxicity
- IC50 ([8]; Homo sapiens, U-87 MG, individual drug, 24 hours, mean ± SD, no unit in table, test concentrations given in μM, read-out: Inhibitory Concentration at 50% (IC50) U87MG Cells): 77 ± 1.14 µM
- IC25 U87MG [8, 12]: 18.94 µM

SMILES: COc1cccc2c1C(=O)c1c(O)c3c(c(O)c1C2=O)C[C@@](O)(C(=O)CO)C[C@@H]3O[C@H]1C[C@H](N)[C@H](O)[C@H](C)O1 [DOX, Doxorubicin]
- cell viability (MTT), in words [9]: reduction in cell viability in a dose-dependent fashion
